Consider eight molecules from US12543733B2 (priority 2020, dated 2026).

Molecules are shown by their SMILES. ≈ marks a conversion by molar mass, not a printed value. Counter-ions that a name gives are not always drawn. Like-named read-outs stand apart in the source and are kept apart here.

One data set has as its system adults of S. oryzae. To be noted: 24 hours of exposure time; cited from earlier work.
In the next data set the test system is Sitophilus oryzae. Kind of data set: Fumigation assay (fumigant toxicity) against adults of stored-product insects. The format is in vivo. To be noted: for LC50: Sitophilus oryzae. How it is done: (§1) Culturing of Insects: The stored product insect rice weevil (S. oryzae L.) was reared on whole wheat and the rust-red flour beetle (T. castaneum Herbst.) was reared on wheat flour with 5% yeast. Rice weevil and flour beetle were maintained at 23.6±2.5° C., 70% relative humidity and a photoperiod of 12:12 (Light:Dark). Corcyra cephalonica were reared on medium consisting of finely ground rice and maize flour in the ratio 1:1 (w/w) under laboratory conditions (27±1° C., 75±5% R.H. with a 12:12 h light:dark cycle.

A further data set deals with Tribolium castaneum. The data set is described as above. The note with it: for LC50: Tribolium castaneum. The format is in vivo. How it is done: as §1
A further data set has as its system C. arietinum plants. The data set is described as follows: Plant growth observation after seed treatment. Format: in vivo.
For a further data set, the system named is Corcyra cephalonica. Kind of data set: Fumigation assay (fumigant toxicity) against adults of stored-product insects. Format: in vivo. To be noted: C. cephalonica adults, mortality after 24 hours of exposure. How it is done:
as §1

For data set [1], the system named is V. radiata (Green gram) seeds. Kind of data set: Seed germination test. The format is in vivo. To be noted: for % germination (Mean ± SE): Green gram. The method, then: (§2) In order to assess the effect of isosecotanapartholide on plant growth and seed germination, particularly 50 seeds of Chickpea and Green gram sample were treated with isosecotanapartholide at 50 and 100 ppm and germination tests were done at […] and 72 hours of exposure treatments. From each sample, twenty grains seeds were randomly selected from the treatment and soaked for about 30 minutes in distilled water, and kept on filter paper (paper towel) in a petri dish, moistened everyday with distilled water, and allowed to germinate at room temperature (25±2° C.). After 48 and 72 hours, germinated seeds were counted and percentage germination was determined as in Radwan et al. 2019 (Annals of Agricultural Sciences, 64(2), 183-187). Three replications of each were made for both treatment and control.
(§3) From each sample, twenty grains seeds were randomly selected from the treatment and soaked for about 30 minutes in distilled water, and kept on filter paper (paper towel) in a petri dish, moistened everyday with distilled water, and allowed to germinate at room temperature (25±2° C.). After 48 and 72 hours, germinated seeds were counted and percentage germination was determined as in Radwan et al. 2019 (Annals of Agricultural Sciences, 64(2), 183-187). Three replications of each were made for both treatment and control.

Data set [2] deals with C. arietinum (Chick pea) seeds. The data set is described as follows: Seed germination test. The format is in vivo. To be noted: for % germination (Mean ± SE): Chick pea. How it is done:
as §2, §3

The test system of data set [3] is stored grain insect pests. The data set is described as follows: Fumigation assay, range over the tested species. How it is done: Measuring insecticidal activity of Isosecotanapartholide and Lemon grass oil (Cymbopogon flexuosus) by Fumigation Assay: The insecticidal activity of Isosecotanapartholide and lemon grass oil was assessed by fumigation assay against adults of stored-product insects (Corcyra cephalonica, Sitophilus oryzae and Tribolium castaneum). For each treatment, 50 individuals were tested for S. oryzae and T. castaneum; particularly adults were released into 0.85 L desiccators that served as the fumigation chambers. In each desiccator, a Whatman No. 1 filter circle (diameter: 9 cm) was placed to serve as an evaporating surface for injecting active extract. […] Five replicates were used for each dosage and LC50 was determined from dose response data using probit analysis. Insect mortality for isosecotanapartholide was recorded after 24 hours of exposure. Insects were considered dead when no leg or antennal movements were observed. Morality rate was calculated using Abbott formula for natural mortality in untreated (Abbott, 1925, Journal of Economic Entomology, 18, 265-267).
For each time point, 20 adults stored grain pests were used and determined percentage mortality.

The next data set relates to V. radiata plants. The data set is described as follows: Plant growth observation after seed treatment. The format is in vivo.
Another data set deals with housefly. To be noted: cited from earlier work.
[4] abbreviates: comparison with other fumigants, fumigation bioassay.
Where [5] appears, read: comparison with other fumigants, fumigation bioassay, read-out: LC50.
[6] abbreviates: in comparison with control, observed for 2 weeks.

`C=CCN=C=S` [allylisothiocyanate]: the concentration found toxic entry with adults of S. oryzae is “less than 6.3 μl/l”.
Usually LC50 stands for the concentration that kills 50% of the test population. With `Cc1ccc(C(C)C)cc1O` [Carvacol], the values for the LC50 in the data set with Sitophilus oryzae (setting [4]) and in the data set on Tribolium castaneum (setting [4]) were 14.2 ng/mL (≈ 0.0945 µM) and 17.0 ng/mL (≈ 0.113 µM), respectively.
As to `CCOC=O` [Ethyl formate], the median lethal concentration (LC50) was determined as 0.72 ng/mL with Sitophilus oryzae (setting [5]) and 1.12 ng/mL with Tribolium castaneum (setting [5]).
As to `P` [Phosphine], the LC50 with Sitophilus oryzae (setting [4]) was 7.8 ng/mL (≈ 0.229 µM); in the data set on Tribolium castaneum (setting [4]) it was 9.8 ng/mL (≈ 0.288 µM).
For `C=CC(C)(O)CCC=C(C)C` (centres unmarked) [Linalool], the figures for the 50% lethal concentration (LC50) in the data set with Sitophilus oryzae (setting [5]) and in the data set with Tribolium castaneum (setting [5]) were 39.2 ng/mL (≈ 0.254 µM) and 49.8 ng/mL (≈ 0.323 µM), respectively.
The like results for `CBr` [Methyl bromide] were, in that order, 3.6 ng/mL and 8.4 ng/mL.
For the molecule `C=C1C(=O)O[C@H](C2=C(C)[C@@H](O)CC2=O)[C@H]1CCC(C)=O` [Isosecotanapartholide, (4S,5S)-5-[(3S)-3-hydroxy-2methyl-5-oxocyclopent-1-en-1-yl]-3-methylidene-4-(3oxobutyl)dihydrofuran-2(3H)-one], the “response on plant growth” value in the data set on C. arietinum plants (50 ppm, FIG. 4 (A)) is “comparable to control”; in the data set with V. radiata plants (50 ppm, FIG. 4 (B)), “comparable to control”. Further, the “adverse effect on plant growth” value in the data set on C. arietinum plants (setting [6]) and in the data set with V. radiata plants (setting [6]) was “did not cause any adverse effect” each time. Further, the LC90 with Sitophilus oryzae (S. oryzae adults, fumigant toxicity, mortality after 24 hours of exposure) turned out to be 3.274 ng/mL (≈ 0.0118 µM); in the data set on Tribolium castaneum (T. castaneum adults, fumigant toxicity, mortality after 24 hours of exposure), 3.946 ng/mL (≈ 0.0142 µM); in the data set on Corcyra cephalonica it was 3.296 ng/mL (≈ 0.0118 µM). In addition, the LC50 in the data set on Sitophilus oryzae (S. oryzae adults, fumigant toxicity, mortality after 24 hours of exposure, read-out: LC50) is 1.82 ng/mL (≈ 0.00654 µM); with Sitophilus oryzae (setting [5]), 1.82 ng/mL (≈ 0.00654 µM); in the data set on Tribolium castaneum (T. castaneum adults, fumigant toxicity, mortality after 24 hours of exposure, read-out: LC50), 2.19 ng/mL (≈ 0.00787 µM); with Tribolium castaneum (setting [5]), 2.19 ng/mL (≈ 0.00787 µM); with Corcyra cephalonica (Corcyra cephalonica) it was 1.83 ng/mL (≈ 0.00658 µM). Also, the “% germination (Mean ± SE)” value was 93.33 ± 1.33% in [1] (50 PPM, 24 hours); 94.67 ± 1.33% in data set [1] (50 PPM, 72 hours); 96.00 ± 2.30% in [1] (100 PPM, 24 hours); 96.00 ± 2.30% in data set [1] (100 PPM, 72 hours); 96.00 ± 2.30% in data set [2] (50 PPM, 24 hours); 97.33 ± 1.33% in data set [2] (50 PPM, 72 hours). Further, the “% germination (Mean ± SE)” value in [2] (100 PPM, 24 hours) is on record as 94.67 ± 1.33%; in [2] (100 PPM, 72 hours), 96.00 ± 2.30%. Also, the “adverse effect on seed germination” value is recorded as “did not cause any adverse effect” in data set [1] (V. radiata, in comparison with control) and “did not cause any adverse effect” in data set [2] (C. arietinum, in comparison with control). The molecule further yielded an LC50 values in [3] of 1.7 to 2.2 ng/mL. Further, the LC90 range in data set [3] was in the range of 3.2 to 4.0 ng/mL.
As for `CC12CCC(CC1)C(C)(C)O2` [1,8 Cineole], the LD50 in the data set with housefly was 118 μg/fly. Besides, the LC50 is 31 ng/mL (≈ 0.201 µM) with Sitophilus oryzae (setting [5]) and 47 ng/mL (≈ 0.305 µM) in the data set with Tribolium castaneum (setting [5]).
